Measured values taken from US20240140986A1, “SYNTHETIC URSOLIC ACID DERIVATIVES AND METHODS OF USE THEREOF” (REATA PHARMACEUTICALS, INC., priority 2021, published 2024).
Like-named read-outs stand apart in the source and are kept apart here.

Columns and labels:
[1] = tested on: IFNγ-induced NO production in RAW 264.7 cells; assay: Nitric Oxide Suppression Assay (IFNγ-induced NO, Griess nitrite readout); format: cell-based, mouse; conditions: for IC50: Mus musculus; for Avg NO IC50 Relative to RTA402 (fold): Table 2, ratio to RTA402
Procedure: Tissue Culture: RAW 264.7, a mouse macrophage cell line, was obtained from American Type Culture Collection (Manassas VA) and maintained in the log phase of growth in Roswell Park Memorial Institute Medium 1640 (RPMI 1640) supplemented with 10% heat inactivated fetal bovine serum and 1% penicillin-streptomycin. Cells were cultured and maintained in a humidified incubator at 37° C. under 5% C02. Cells were sub-cultured every 2-4 days. All cell culture supplies were obtained from Life Technologies (Grand Island, NY) and VWR (Radnor, PA).
Nitric Oxide Suppression Assay. RAW 264.7 cells were plated 1 day in advance of experimental treatments at a concentration of 30,000 cells per well onto Falcon-96 well clear bottom plates (Corning, NY) in a total volume of 200 μL per well using RPMI 1640 supplemented with 0.5% fetal bovine serum and 1% penicillin-streptomycin. The next day, cells were pretreated with compounds serially diluted from 1000×stocks. All compounds were dissolved in dimethyl sulfoxide (DMSO) usually at 10 mM stock solutions. Compounds were subsequently diluted in DMSO and RPMI 1640. Each well received a final concentration of 0.1% DMSO. Cells were pretreated for 2 hours and incubation at 37° C., followed by treatment with 20 ng/mL of interferon gamma (R&D Systems, Minneapolis, MN) per well for 24 hours. The next day, a nitrite standard was serially diluted from 100 μM to 1.6 μM in RPMI 1640. Afterwards, 50 μL of cell culture supernatant was transferred from each well into a new Falcon-96 well clear bottom plate. Nitrite was measured as surrogate for nitric oxide using Promega's Griess Detection Kit #G2930 (Madison, WI) which involves the addition of 50 μL of the provided sulfanilamide solution to each well of the transferred cell culture supernatant and standards, followed by a 10-minute incubation at room temperature. Next, 50 μL of the provided N-1-napthylethylenediamine dihydrochloride (NED) solution was added to the sulfanilamide reaction and incubated for 10 minutes at room temperature in the dark. Afterwards, air bubbles were removed using ethanol vapor and absorbance was measured using a Spectramax M2e plate reader with a wavelength set to 525 nm. Viability was assessed using WST-1 cell proliferation reagent from Roche (Basel, Switzerland). After media was removed for the Nitric Oxide suppression assay, 15 μL of WST-1 reagent was added to each well of cells. Plates were briefly mixed on an orbital shaker and the cells were incubated at 37° C. for 30-90 minutes. Absorbance was measured using a Spectramax M2e plate reader with wavelengths set to 440 nm and 700 nm.
For the ability of compounds to suppress the increase in nitric oxide release caused by interferon gamma, the absolute amount of nitrite that was produced in each well was extrapolated from the nitrite standards using a linear regression fit. All values were then normalized to the DMSO-interferon gamma treated wells and plotted as percent nitric oxide. IC50 values were calculated using Excel and/or GraphPad Prism (San Diego, CA).

[2] = tested on: Nrf2 / ARE-dependent luciferase in AREc32 reporter cell line; assay: AREc32 luciferase reporter activation (Nrf2 induction); format: cell-based, human; conditions: for EC (2-fold): Homo sapiens, Arec32; for Relative Avg AREc32 EC2X Relative to RTA402 (fold): ratio to RTA402
Procedure: Effect on Ludferase Reporter Activation. Nrf2 is a transcription factor that binds to the antioxidant response element (ARE) sequence in the promoter regions of its target genes. AREc32 reporter cell line (derived from human breast carcinoma MCF7 cells) was obtained was from CXR Bioscience Limited (Dundee, UK) and cultured in DMEM (low glucose) supplemented with 10% FBS, 1% penicillin/streptomycin, and 0.8 mg/ml Geneticin (G418). This cell line is stably transfected with a luciferase reporter gene under the transcriptional control of eight copies of the rat GSTA2 ARE sequence (5′-GTGACAAAGCA-3′) (Wang et al., 2006). Expression of Firefly luciferase from this reporter plasmid is controlled by binding of Nrf2 to these ARE sequences. Measurement of ARE-dependent luciferase activity allows quantitative assessment of Nrf2 induction. AREc32 cell line has previously been used in studies characterizing different Nrf2 activators (Dinkova-Kostova & Wang, 2011; Roubalová et al., 2016; Roubalová et al, 2017; Wu et al, 2012).
The effect of several compounds disclosed herein on luciferase reporter activation was assessed in the AREc32 reporter cell line (see Table 10 and Table 11). This cell line is derived from human breast carcinoma MCF-7 cells and is stably transfected with a luciferase reporter gene under the transcriptional control of eight copies of the antioxidant response element from the rat Gsta2 gene, an Nrf2 target gene (Frilling et al., 1990). AREc32 cells were plated in black 96-well plates in 200 μL media at 20,000 cells per well. Twenty-four hours after plating, cells were treated with vehicle (DMSO) or test compounds at concentrations ranging from 0.03 to 1000 nM for nineteen hours. Media was removed and 100 μL of 1:1 mixture of the One-Glo Luciferase assay reagent and culture medium was added to each well. After incubation for 5 min at room temperature, the luminescence signal was measured on a PHERAstar plate reader. The EC2X value was determined using Excel and GraphPad Prism software. The fold increase in luminescence signal for cells treated with each concentration of compound relative to cells treated with vehicle was determined and a dose-response curve was generated. The dose-response curve was fit using nonlinear regression analysis and used to extrapolate the EC2X value. The EC2X value is defined as the concentration of test compound required to increase the luminescence signal 2-fold above levels in vehicle-treated samples.

[3] = RAW264.7, Table 2, RAW 264.7 cells, 2 h pretreatment, 20 ng/mL interferon gamma 24 h, read-out: Avg NO IC50 (nM) (Mean ± SD)
[4] = Table 2, concentration increasing luminescence 2-fold above vehicle, 19 h treatment, read-out: Avg AREc32 EC2X (nM) (Mean ± SD)
[5] = RAW264.7, Table 3, ursolic acid derivatives, read-out: Avg NO IC50 (nM) (Mean ± SD)
[6] = Table 3, ursolic acid derivatives, read-out: Avg ARE EC-2X (nM) (Mean ± SD)
[7] = RAW264.7, Table 3, oleanolic acid derivative analogs, read-out: Avg NO IC50
[8] = Table 3, oleanolic acid derivative analogs, read-out: Avg ARE EC-2X

Compound	IC50 [1, 3] [nM]	Avg NO IC50 Relative to RTA402 (fold) [1] [fold]	EC (2-fold) [2, 4] [nM]	Relative Avg AREc32 EC2X Relative to RTA402 (fold) ([2]; Table 2)	IC50 [1, 5] [nM]	EC (2-fold) [2, 6] [nM]	IC50 [1, 7] [nM]	EC (2-fold) [2, 8] [nM]
COCCc1noc([C@]23CC[C@@H](C)[C@H](C)[C@H]2[C@H]2C(=O)C=C4[C@@]5(C)C=C(C#N)C(=O)C(C)(C)[C@@H]5CC[C@@]4(C)[C@]2(C)CC3)n1 [Compound T7]	3.65 ± 1.87	1.62 ± 0.54	6.16 ± 0.7	0.595 ± 0.079	–	–	–	–
C[C@@H]1[C@H]2[C@H]3C(=O)C=C4[C@@]5(C)C=C(C#N)C(=O)C(C)(C)[C@@H]5CC[C@@]4(C)[C@]3(C)CC[C@@]2(CNC(=O)OC(C)(C)C)CC[C@H]1C [Compound T20]	12.9 ± 4.6	3.72 ± 0.60	21.5 ± 4.6	1.83 ± 0.41	12.9 ± 4.6	21.5 ± 4.6	–	–
CC1(C)CC[C@]2(N)CC[C@]3(C)[C@H](C(=O)C=C4[C@@]5(C)C=C(C#N)C(=O)C(C)(C)[C@@H]5CC[C@]43C)[C@@H]2C1 [CC16, reference compound]	–	–	–	–	–	–	3.5	27.7
CC1(C)CC[C@]2(CNC(=O)OC(C)(C)C)CC[C@]3(C)[C@H](C(=O)C=C4[C@@]5(C)C=C(C#N)C(=O)C(C)(C)[C@@H]5CC[C@]43C)[C@@H]2C1 [CC20, reference compound]	–	–	–	–	–	–	5	21.1
COC(=O)[C@]12CC[C@@H](C)[C@H](C)[C@H]1[C@H]1C(=O)C[C@@H]3[C@@]4(C)C=C(C#N)C(=O)C(C)(C)[C@@H]4CC[C@@]3(C)[C@]1(C)CC2 [Compound T101]	102 ± 15	67.7 ± 3.62	142 ± 29	15.8 ± 2.1	–	–	–	–
CC(=O)N(C)C[C@]12CCC(C)(C)C[C@H]1[C@H]1C(=O)C=C3[C@@]4(C)C=C(C#N)C(=O)C(C)(C)[C@@H]4CC[C@@]3(C)[C@]1(C)CC2 [CC35, reference compound]	–	–	–	–	–	–	0.8	6.81
C[C@@H]1[C@H]2[C@H]3C(=O)C=C4[C@@]5(C)C=C(C#N)C(=O)C(C)(C)[C@@H]5CC[C@@]4(C)[C@]3(C)CC[C@@]2(CC(=O)O)CC[C@H]1C [Compound T89]	14.6 ± 2.2	8.03 ± 3.23	3.62 ± 1.73	0.345 ± 0.161	–	–	–	–
C[C@@H]1[C@H]2[C@H]3C(=O)C=C4[C@@]5(C)C=C(C#N)C(=O)C(C)(C)[C@@H]5CC[C@@]4(C)[C@]3(C)CC[C@@]2(c2nc(CCO)no2)CC[C@H]1C [Compound T5]	1.81 ± 0.331	1.24 ± 0.13	2.4 ± 0.75	0.224 ± 0.196	–	–	–	–
C[C@@H]1[C@H]2[C@H]3C(=O)C=C4[C@@]5(C)C=C(C#N)C(=O)C(C)(C)[C@@H]5CC[C@@]4(C)[C@]3(C)CC[C@@]2(Cn2ccnn2)CC[C@H]1C [Compound T50]	9.81 ± 2.79	3.18 ± 0.30	8.26 ± 1.39	0.666 ± 0.148	9.81 ± 2.79	8.26 ± 1.39	–	–
C[C@@H]1[C@H]2[C@H]3C(=O)C=C4[C@@]5(C)C=C(C#N)C(=O)C(C)(C)[C@@H]5CC[C@@]4(C)[C@]3(C)CC[C@@]2(CN(C)C(=O)C(C)(F)F)CC[C@H]1C [Compound T38]	39.2 ± 4.2	9.52 ± 1.82	34.5 ± 7.6	2.76 ± 0.32	–	–	–	–
CCc1noc([C@]23CC[C@@H](C)[C@H](C)[C@H]2[C@H]2C(=O)C=C4[C@@]5(C)C=C(C#N)C(=O)C(C)(C)[C@@H]5CC[C@@]4(C)[C@]2(C)CC3)n1 [Compound T4]	14.8 ± 2.9	7.06 ± 0.83	19.9 ± 0.2	1.93 ± 0.23	14.8 ± 2.9	19.9 ± 0.2	–	–
Cc1cn(C[C@]23CCC(C)(C)C[C@H]2[C@H]2C(=O)C=C4[C@@]5(C)C=C(C#N)C(=O)C(C)(C)[C@@H]5CC[C@@]4(C)[C@]2(C)CC3)nn1 [CC49, reference compound]	–	–	–	–	–	–	–	13.8
CNC(=O)N(C)C[C@]12CCC(C)(C)C[C@H]1[C@H]1C(=O)C=C3[C@@]4(C)C=C(C#N)C(=O)C(C)(C)[C@@H]4CC[C@@]3(C)[C@]1(C)CC2 [CC36, reference compound]	–	–	–	–	–	–	–	7.23
CC1(C)CC[C@]2(CN3CCC3)CC[C@]3(C)[C@H](C(=O)C=C4[C@@]5(C)C=C(C#N)C(=O)C(C)(C)[C@@H]5CC[C@]43C)[C@@H]2C1 [CC55, reference compound]	–	–	–	–	–	–	–	22
CC1(C)CC[C@]2(N3CCCC3=O)CC[C@]3(C)[C@H](C(=O)C=C4[C@@]5(C)C=C(C#N)C(=O)C(C)(C)[C@@H]5CC[C@]43C)[C@@H]2C1 [CC58, reference compound]	–	–	–	–	–	–	–	37.9
CC1(C)CC[C@]2(c3nc(C4CC4)no3)CC[C@]3(C)[C@H](C(=O)C=C4[C@@]5(C)C=C(C#N)C(=O)C(C)(C)[C@@H]5CC[C@]43C)[C@@H]2C1 [CC2, reference compound]	–	–	–	–	–	–	–	43.7
